Source: patent US8822533B1, “Methods and compositions for repelling and/or killing insects” (The United States of America, as represented by the …, priority 2011, dated 2014)

Assays:
[1] = system: Mosquitoes, either Aedes aegypti (Liverpool) or Anopheles stephensi Liston; assay: K&D module in vitro bioassay: biting protection, knockdown and mortality; format: in vivo
Procedure: In vitro bioassays were conducted as described by Klun et. al. (Klun, J. A., et al., J. Med. Entomol., 40: 293-299 (2005)). Each test replicate consisted of 3 treatments: a control (EtOH); a standard (Deet, 4.54 nmol/μl); and an experimental compound (pyrethroid analogs, 4.54 nmol/ul). The 3 treatments were randomly assigned to consecutive cells in 2, 6-cell reservoirs connected in series to a single water-bath pump; thus, 4 replicates could be tested/run. Tests were performed in an Air Science USA hood, with an air movement velocity of approx. 110-120 ft./min., temperature of 25-27° C., and RH of 15-25%. A 6-celled reservoir was connected to and heated by a constant-temperature (38° C.) water circulator (Lauda E100, Wobser GMGH and Co., Konigshofell, Germany).
Prior to each test, the upper surface of each reservoir was coated with a thin layer of high-vacuum silicone grease (Dow Corning Corp., Midland, Mich.), and the cells then filled (approx. 6 ml. capacity) or topped-off with either: (1) expired human red blood cells suspended in citrate-phosphate-dextrose-adenine (CPDA) solution, not more than 1 month past expiration date, and to which 110 mg ATP/35 ml. blood-CPDA had been added on the day of testing; or (2) CPDA+ATP×^−3, usually made up or diluted to 10^−3 ATP on the day of testing. The filled cells were then covered with an Edicol collagen membrane (Devro, Sandy Run, S.C.) strip, and then with a just-treated (110 μl of 4.54 nmol/μl treatment or control solution) organdy cloth (G Street Fabrics, Rockville, Md.) strip. Mosquitoes used in tests were either Aedes aegypti_(Liverpool) or Anopheles stephensi_Liston. K&D modules containing 5 adult females/cell were placed over a Teflon separator atop each reservoir; the sliding floors opened allowing access to the treated organdy cloth and membrane-covered cell; and the number of mosquitoes biting (proboscis inserted through the cloth) and/or observed to be engorged within each cell at the end of a 3-5 min. exposure period was recorded. Mosquitoes were used only once in a test, and then frozen and discarded.
Only tests in which 3 or more females fed in the control cell were analyzed, as lower feeding rates are indicative of substandard feeding readiness of that group of mosquitoes.
[…] Data were collected to record knockdown in 6 minutes, one hour and 24 hours post exposure.

Ae. aegypti mosquitoes = assay: Sleeve bite protection assay on treated uniform fabric, mosquitoes; format: in vivo, Aedes aegypti (Orlando, 1952)
Procedure: (§1) Biological Evaluation: Bite protection assays were conducted with laboratory-reared 7-12 day old mosquitoes or sand flies. The species used throughout these studies are Aedes aegypti (Orlando, 1952) and Phlebotomus papatasi sand flies (Jerusalem, 1983). Females were pre-selected using either a hand draw box or a mechanical aspirator. An assay was conducted by wearing sewn sleeves made from clothing material. Treated specimens were assayed with untreated controls to correct for the bite resistance afforded by material construction and composition. The untreated control was tested at the beginning of the experiment, followed by successively higher candidate repellent concentrations on sleeves. Sleeves were sewn from a cut out single ply trapezoidal pattern (33.2 cm×21 cm×25.5 cm height) of material. […] Permethrin was 35:65cis: trans, 95.85% technical material. Experimental repellents were received as neat samples with <5% impurities. The treatment occurred by dissolution of repellent in suitable quantity of acetone to saturate the clothing, but minimizing excess solution. Excess solution was quantified and this amount of excess was then used to calculate the estimated amount of repellent applied to the material. […] The photoperiod was 12:12. The mosquito cages were approximately 60000 cm^3 and each contained 175 to 225 female mosquitoes. […] Cages for sand fly work were slightly smaller (15000 cm^3) and constructed of acrylic for filming purposes and with screens on the exterior edges to allow air flow through the system. About 20-40 sand flies were released in cages for each assay. Assays started when the sleeved arm was inserted through the sleeve into the cage. Normally the hand was protected by a glove, but there were situations (i.e. sand fly data presented here) when the ability of a repellent to protect the untreated hand was determined. The assay periods were 15 min for the mosquitoes and 25-30 minutes for sand flies. The insects were allowed to land, probe and possibly bloodfeed during this time. At the conclusion of the experiment, all insects were knocked down or aspirated and the percentage that bloodfed of the total female test population in the cage was recorded. The protect level was calculated by Abbott's formula as a percentage reduction in bites compared to the untreated fabric control sleeve. Specific conditions for bioassays are noted with corresponding data contained in the Tables.

[2] = system: Phlebotomus papatasi sand flies; assay: Sleeve bite protection assay on treated uniform fabric, sand flies; format: in vivo, Phlebotomus papatasi (Jerusalem, 1983); conditions: FRACU, 25-29 minutes
Procedure: as §1

[3] = ACU (50/50 NYCO) sleeve, glove on hand, 15 min, permethrin 0.118, transfluthrin 0.108, TL-I-107 0.107, TL-I-141 0.109, TL-I-105 0.107, TL-I-73 0.102 mg/cm^2
[4] = ACU (50/50 NYCO) sleeve, glove on hand, Abbott's formula vs untreated sleeve, concentrations as E1
[5] = ACU (50/50 NYCO) sleeve, glove on hand, concentrations as E1
[6] = ACU sleeve, stored one year then tested, concentrations as E1
[7] = ACU sleeve, treated specimens stored in refrigerator for one year then tested, concentrations as E1
[8] = FRACU, untreated sleeve + treated strip, Ultrathon (34.34% DEET) on hand, TL-I-73 0.163, transfluthrin 0.158 mg/cm^2
[9] = FRACU, untreated sleeve + treated strip, hand gloved, TL-I-73 0.163, transfluthrin 0.158 mg/cm^2
[10] = untreated sleeve + TL-I-73 strip 0.163 mg/cm^2, hand ungloved
[11] = ACU sleeve, No Glove on hand, permethrin 0.118, transfluthrin 0.108 mg/cm^2
[12] = FRACU sleeve, concentrations as E9
[13] = FRACU, permethrin sleeve 0.135 mg/cm^2 + untreated strip, Ultrathon (34.34% DEET) on hand
[14] = FRACU, permethrin sleeve 0.135 mg/cm^2 + untreated strip, hand gloved
[15] = permethrin sleeve 0.135 mg/cm^2 + untreated strip, hand ungloved

SMILES	Knockdown 6 min (%) ([1]; 2.5 nM\cm^2, K&D module)	Knockdown 1 hour (%) ([1]; 2.5 nM\cm^2, K&D module)	Knockdown 24 hours (%) ([1]; 2.5 nM\cm^2, K&D module)	Not feeding 3 minutes (%) ([1]; 2.5 nM\cm^2, K&D module)	Knockdown 6 min (%) ([1]; 25 nM\cm^2, K&D module)	Knockdown 1 hour (%) ([1]; 25 nM\cm^2, K&D module)	Knockdown 24 hours (%) ([1]; 25 nM\cm^2, K&D module)	Not feeding 3 minutes (%) ([1]; 25 nM\cm^2, K&D module)	Blood-fed # (Ae. aegypti mosquitoes; [3])	Bite Protection (%) (Ae. aegypti mosquitoes; [4])	Fed (%) (Ae. aegypti mosquitoes; [5])	Bite Protection (%) (Ae. aegypti mosquitoes; [6])	Fed (%) (Ae. aegypti mosquitoes; [6])	Blood-fed # (Ae. aegypti mosquitoes; [7])	other results
COCc1c(Cl)c(Cl)c(COC(=O)[C@@H]2[C@@H](C=C(C)C)C2(C)C)c(Cl)c1Cl [TL-I-73]	97	100	100	100	97	100	100	100	0 #	100	0.0	100	0.0	0 #	Blood-fed # (Ae. aegypti mosquitoes; FRACU, untreated sleeve + treated strip (20.5 cm × 2.6 cm) at wrist, hand gloved, TL-I-73 0.163, transfluthrin 0.158 mg/cm^2): 71 #; Blood-fed # (Ae. aegypti mosquitoes; FRACU, untreated sleeve + treated strip, Ultrathon 12 hr repellent (34.34% DEET) on hand, TL-I-73 0.163, transfluthrin 0.158 mg/cm^2): 85 #; Bite Protection (%) (Ae. aegypti mosquitoes; [8]): −45%; Fed (%) (Ae. aegypti mosquitoes; [8]): 38.8%; Bite Protection (%) (Ae. aegypti mosquitoes; [9]): 57.2%; Fed (%) (Ae. aegypti mosquitoes; [9]): 10.5%; Bite Protection (%) [2, 10]: 21.8%; Blood-fed # [2, 10]: 7 #; Fed (%) [2, 10]: 31.8%
Cc1c(F)c(F)c(COC(=O)[C@@H]2[C@@H](C=C(Cl)Cl)C2(C)C)c(F)c1F [TL-I-141]	100		100	100	100		100	100	0 #	100	0.0	100	0.0	0 #	Knockdown 1 hour (%) ([1]; 2.5 nmol/cm^2, K&D module): 100%; Knockdown 1 hour (%) ([1]; 25 nmol/cm^2, K&D module): 100%; mortality at 0.0025 µM ([1]; Aedes aegypti, 24 h): 100%; mortality at 0.025 µM ([1]; Aedes aegypti, 48 h): 100%
CC(C)=C[C@@H]1[C@@H](C(=O)OCc2c(Cl)c(Cl)c(C)c(Cl)c2Cl)C1(C)C [TL-I-109]	4	35	6	98	4	58	37	98							
CC1(C)C(C=C(Cl)Cl)C1C(=O)OCc1cccc(Oc2ccccc2)c1 (centres unmarked) [Permethrin]									0 #	100	0.0	100	0.0	0 #	Blood-fed # (Ae. aegypti mosquitoes; [11]): 32 #; Fed (%) (Ae. aegypti mosquitoes; [11]): 18.1%; Blood-fed # (Ae. aegypti mosquitoes; FRACU (65% Rayon, 10% Nylon, 25% Para-aramid) sleeve, permethrin 0.071, combination permethrin 0.031 + transfluthrin 0.038, transfluthrin 0.052 mg/cm^2): 24 #; Bite Protection (%) (Ae. aegypti mosquitoes; [12]): 86.7%; Fed (%) (Ae. aegypti mosquitoes; [12]): 10.5%; Bite Protection (%) (Ae. aegypti mosquitoes; [13]): 71.5%; Blood-fed # (Ae. aegypti mosquitoes; [13]): 15 #; Fed (%) (Ae. aegypti mosquitoes; [13]): 7.6%; Bite Protection (%) (Ae. aegypti mosquitoes; [14]): 94.0%; Blood-fed # (Ae. aegypti mosquitoes; [14]): 10 #; Fed (%) (Ae. aegypti mosquitoes; [14]): 4.9%; Bite Protection (%) [2, 15]: −28.5%; Blood-fed # [2, 15]: 11 #; Fed (%) [2, 15]: 52.3%; Bite Protection (%) ([2]; permethrin sleeve 0.135 mg/cm^2 + untreated strip, hand ungloved, listed as permethrin): increased bites on the skin
Cc1c(Cl)c(Cl)c(COC(=O)C2C(C=C(Cl)Cl)C2(C)C)c(Cl)c1Cl (centres unmarked) [TL-I-111]	0	16	8	90	2	23	16	92							
Cc1c(Cl)c(Cl)c(COC(=O)C2C(C=C(Cl)C(F)(F)F)C2(C)C)c(Cl)c1Cl (centres unmarked) [TL-I-113]	0	14	9	76	0	34	23	92							
CC1(C)C(C=C(Cl)Cl)C1C(=O)OC(C#N)c1cccc(Oc2ccccc2)c1 (centres unmarked) [a-cypermethrin, reference compound]	67	91	100	81	83	100	100	98							
